The text below walks through data of patent publication US5958965A, “4-aminoethoxy indoles” (American Home Products Corporation, priority 1997, dated 1999).

Each structure is given as a SMILES string. pIC50: −log10 of the molar value. Read-outs that look alike come from different tables or passages of the source.

For one experiment, the target named is T1, dopamine D-2 receptor (Rattus norvegicus, UniProt P61169).
T1 construct: homogenized limbic brain tissue is incubated with; from tissue; host or cells: limbic brain tissue, homogenized
Kind of experiment: Affinity for the dopamine D-2 receptor, 3H-spiroperidol binding in homogenized limbic brain tissue.

Experiment [1] has as its target T2, 5-HT1A serotonin receptor (Rattus norvegicus, UniProt P19327).
T2 sequence (P19327 1-422): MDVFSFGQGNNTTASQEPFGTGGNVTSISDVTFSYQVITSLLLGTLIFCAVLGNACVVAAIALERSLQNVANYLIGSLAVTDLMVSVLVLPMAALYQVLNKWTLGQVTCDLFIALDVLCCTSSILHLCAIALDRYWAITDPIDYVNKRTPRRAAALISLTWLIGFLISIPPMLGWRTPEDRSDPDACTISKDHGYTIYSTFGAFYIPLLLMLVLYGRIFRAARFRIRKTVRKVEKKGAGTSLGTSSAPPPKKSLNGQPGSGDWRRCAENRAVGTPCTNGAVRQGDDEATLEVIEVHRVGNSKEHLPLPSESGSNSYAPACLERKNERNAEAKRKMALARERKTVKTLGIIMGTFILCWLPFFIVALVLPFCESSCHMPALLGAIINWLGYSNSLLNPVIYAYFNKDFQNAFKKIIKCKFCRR
Description: Displacement of [3H] 8-OHDPAT from the 5-HT1A serotonin receptor. In kind it is binding. An excerpt:
High affinity for the serotonin 5-HT1A receptor was established by testing the claimed compound's ability to displace [^3 H] 8-OHDPAT (dipropylaminotetralin) from the 5-HT1A serotonin receptor following the procedure of Hall et al., J. Neurochem. 44, 1685 (1985). […] The anxiolytic activity of buspirone is believed to be, at least partially, due to its 5-HT1A receptor affinity (Vander Maclen et al., Eur. J. Pharmacol. 1986, 129 (1-2) 133-130).
On the technique in general: Loss of bound radioactivity is the signal in a displacement assay; it reports binding, not function.

Experiment [2] has as its target T2, 5-HT1A serotonin receptor. The conditions noted are these: standard for anxiolytic activity, comparison substance; cited from earlier work.
The mark [3] stands for this setting: 3H-spiroperidol, limbic brain tissue, read-out: IC50 D2 Spiper.

T1 sequence (P61169 whole entry): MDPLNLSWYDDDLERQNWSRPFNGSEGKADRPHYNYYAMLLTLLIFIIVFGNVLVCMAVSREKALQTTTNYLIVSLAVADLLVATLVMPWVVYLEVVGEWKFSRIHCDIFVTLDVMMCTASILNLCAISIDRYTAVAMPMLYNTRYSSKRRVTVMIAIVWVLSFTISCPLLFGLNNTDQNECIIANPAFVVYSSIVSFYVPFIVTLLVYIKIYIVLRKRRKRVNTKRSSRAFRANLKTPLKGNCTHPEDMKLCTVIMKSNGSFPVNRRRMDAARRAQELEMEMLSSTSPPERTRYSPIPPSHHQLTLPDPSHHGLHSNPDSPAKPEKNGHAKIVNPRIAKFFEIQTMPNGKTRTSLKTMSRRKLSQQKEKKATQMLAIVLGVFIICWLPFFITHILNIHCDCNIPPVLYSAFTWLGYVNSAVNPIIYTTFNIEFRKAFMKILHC

`Clc1c[nH]c2cccc(OCCNCCCCc3ccccc3)c12` [Example 2a, [2-(3-Chloro-1H-indol-4-yloxy)-ethyl]-(4-phenyl-butyl)-amine]: the pIC50 (as a rule, the negative decadic logarithm of the IC50, by convention in mol/L) at dopamine D-2 receptor (setting [3]) is 6.71; in experiment [1], 9.00.

Turning to `Clc1ccc(OCCNCc2cccs2)c2c(Cl)c[nH]c12` [Example 1f, Thien-2-ylmethyl-[2-(3,7-dichloro-1H-indol-4-yloxy)-ethyl]-amine], the pIC50 at dopamine D-2 receptor (setting [3]) was 6.39.

`O=C(c1c[nH]c2cccc(OCCNCc3ccccc3)c12)C(F)(F)F` [Example 3a, 1-[4-(2-Benzylamino-ethoxy)-1H-indol-3-yl]-2,2,2-trifluoro-ethanone]: the pIC50 was 6.54 on dopamine D-2 receptor (setting [3]) and 7.22 in experiment [1].

Regarding `O=C(c1c[nH]c2c(Cl)ccc(OCCNCc3ccccc3)c12)C(F)(F)F` [Example 2c, 1-[4-(2-Benzylamino-ethoxy)-7-chloro-1H-indol-3-yl]-2,2,2-trifluoro-ethanone], in experiment [1], the pIC50 was 6.99.

For `Clc1ccc(OCCNCc2ccccc2)c2cc[nH]c12` [Example 1b, Benzyl-[2-(7-chloro-1H-indol-4-yloxy)-ethyl]-amine], the pIC50 on dopamine D-2 receptor was 6.74; in experiment [1], 6.41.

For `O=C1CC2(CCCC2)CC(=O)N1CCCCN1CCN(c2ncccn2)CC1` [buspirone], in experiment [2], the “affinity for the 5-HT1A serotonin receptor” value is on record as “potent affinity”.

As to `Clc1ccc(OCCNCc2ccccc2)c2c(Cl)c[nH]c12` [Example 1c, Benzyl-[2-(3,7-dichloro-1H-indol-4-yloxy)-ethyl]-amine], the pIC50 on dopamine D-2 receptor (setting [3]) is 6.55; in experiment [1], 6.36.

For the compound `c1ccc(CNCCOc2cccc3[nH]ccc23)cc1` [Example 3b, N-Benzyl-[2-(1H-indol-4-yloxy)]-ethylamine], the pIC50 was 6.30 at dopamine D-2 receptor and 7.44 in experiment [1].

Take `c1ccc(CCCCNCCOc2cccc3[nH]ccc23)cc1` [Example 1a, [2-(1 H-Indol-4-yloxy)-ethyl]-(4-phenyl-butyl)-amine]: the results for the pIC50 (at dopamine D-2 receptor; in experiment [1]) were 6.74 and 9.15, respectively.
